Assay results as given in patent US11141406B2, “Pharmaceutical compounds” (REVIRAL LIMITED, priority 2017, dated 2021).

Assays:
Type in all cases: cell-based
RSV A2 VR-1540 = assay: RSV plaque reduction assay, typical conditions (HEp-2 cells); details: human respiratory syncytial virus
Procedure: The plaque reduction assay was typically performed as follows. HEp-2 cells (ATCC, CCL23) were passaged in flasks and seeded in 96-well plates in DMEM containing antibiotics and supplemented with 10% FBS. During inoculation and subsequent incubation, cells were cultured in DMEM containing 3% FBS. 100 plaque forming unit (PFU)/well of RSV (RSV A2 VR-1540) was mixed with ten serial dilutions of compound. Subsequently, 100 μL of the virus/compound mixtures was added to confluent HEp-2 cell monolayers. The cells and virus/compound mixtures were incubated at 35° C. in a humidified 5% CO2 incubator for 1 day.
Cells were washed twice with PBS before adding 50% v % v EtOH/MeOH, and then stored at −20° C. On the day of the staining, fixative was first removed from the plates. Plates were washed 3× with PBS. A pre-titrated amount of the primary antibody was added in 60 μL PBS/2% milk powder, and plates incubated for 1 h at rt. The plates were washed 3× with PBS/0.05% Tween20 before addition of goat anti-mouse horse radish peroxidase in 60 μL PBS/2% milk powder, and incubated for 1 h at rt. Following three wash steps with PBS/0.05% Tween20, 60 μL ready-to-use TrueBlue was added and plates were incubated at it for 10-15 min before adding MilliQ water. Plates were washed once with water, incubated for 30-60 min and after removal of water, air-dried in the dark.
(§1) Plates were scanned and analyzed using the Immunospot S6 UV analyzer, which is equipped with BioSpot analysis software for counting immunostained plaques (virospots). Plaque counts were used to calculate % infection relative to the mean of the spot count (SC) in the virus control wells for RSV. IC50/IC90 values were calculated as 50% or 90% reduction in signal, respectively, by interpolation of inhibition curves fitted with a 4-parameter nonlinear regression with a variable slope in GraphPad 5.0 (Prism). Alternatively, where noted the plaque reduction assay was performed as follows. Hep G2 cells (ECACC, 85011430) were passaged in flasks and seeded in 12-well plates in DMEM containing antibiotics and supplemented with 10% FBS, 24 h prior to inoculation. During inoculation and subsequent incubation, cells were cultured in DMEM containing 2% FBS. 75 plaque forming unit (PFU)/well of RSV (RSV A2, 0709161v) was mixed with 8 serial dilutions of compound. Subsequently, 200 μL of the virus/compound mixtures was added to confluent Hep G2 cell monolayers, for a 2 h infection, with manual shaking every 15 min. Infectious supernatant was then removed and replaced with 2 mL of overlay, comprising 4 parts of DMEM+2% FBS and 1 part 4% CMC, with 0.25% DMSO. The cells were incubated at 37° C. in a humidified 5% CO2 incubator for 5 days.

[1] = tested on: RSV fusion (HEK293T cells transfected with pCDNA3.1_A2_F); assay: RSV fusion assay; details: human respiratory syncytial virus, HEK-293T, read-out: RSV Fusion Assay (n ≥ 2) IC50
Procedure: HEK293T ((ECACC 12022001) cells were cultured in T75 culture flasks in Dulbecco's medium (DMEM) containing 10% Foetal Bovine serum (FBS), 50 units per mL Penicillin and 50 μg/mL Streptomycin and warmed to 37° C. prior to use. The cells were passaged by first washing briefly with 5 mL Phosphate buffered saline (PBS), followed by addition of 2 mL of Trypsin Ethylenediaminetetraacetic acid (EDTA) to detach the cells. Once cells had detached from the flask, 8 mL media was then added to and the cells dispersed via pipetting against the bottom of the flask.
The cells were counted and diluted to 3×10^5 cells/mL in fresh media. Two T75 flasks were each seeded with 15.6 mL diluted cells, cells were also subcultured at a ratio of between 1:2 and 1:10, to continue the stock. The flasks were then incubated for 24 h at 37° C. and 5% CO2.
The plasmid DNA (for pFR-Luc and pcDNA3.1_Gal4/NFKB) to be transfected into the HEK 293T cells was first prepared in serum free media (Opti-MEM, Invitrogen), containing the transfection reagent FuGENE® 6 (Promega). Serum free media was placed in a 1.5 mL eppendorf tube then the FuGENE 6 was added into the media. The tube was vortexed for 1 s before being incubated at RT for 5 min. 7.79 ng of both pFR_luc and pCDNA3.1_A2_F plasmid DNA were added to tube 1 and 7.79 ng of pCDNA3.1_GAL4-NF-κB plasmid to tube 2. The tubes were vortexed for 1 second and then incubated at room temperature for 15 min. Each transfection mixture was then added into the media of one of the T75 flasks of 293T cells. Cells were cultured for 24 h at 37° C., 5% CO2 in a humidified incubator.
Compounds were diluted (in a polypropylene round-bottomed 96 well plate) 1:3 in a twelve point dilution curve to give top [final] of either 25 μM, 3 μM, 1 μM or 500 nM. A control compound was included in every assay at a top concentration of 3 μM. Transfected cells were counted and diluted to 4×10^5 cells/mL in fresh media. 50 μL of transfection population 1 were added to all wells of the 96 well flat bottom white opaque assay plates. 100 μL diluted compound (2 rows per compound), control compound (one row) and controls (DMSO (0% inhibition, four wells), 3 μM positive control (100% inhibition, four wells) and media (transfection population 1 only, four wells) were added to the appropriate wells. 50 μL of the diluted (4×10^5 cells/mL) population 2 cells when then added to all wells, except the four wells of transfection population 1 only where an extra 50 μL of this cells population was added.
The plates were then incubated for 24 h at 37° C. and 5% CO2. After this time, 100 μL was removed from all wells and 60 μL of ONE-Glo™ (Promega) reagent, pre-equilibrated to room temperature, was added. Plates were then incubated for 3 min at room temperature before luminescence was read, using the ONE-Glo protocol, on the GloMax Explorer System (Promega) multimode reader. Analysis was carried out in Dotmatics software. All raw data were background subtracted (subtraction of mean 3 μM positive control value), before IC50 calculation.

RSV A2, 0709161v = assay: RSV plaque reduction assay, alternative conditions (Hep G2 cells); details: human respiratory syncytial virus, HepG2, mean of at least 2 independent experiments, read-out: RSV Plaque Reduction Assay Strain A2 IC50
Procedure: as §1
Overlay was removed, and cells were washed with PBS before fixing with a mixture of 75% acetone 25% methanol for 3 minutes and replacing with fresh PBS. […] Staining was carried out whilst shaking at 37° C. First the plates were blocked with 500 uL PBS-T/2% milk powder per well, for 1 hr. This was then replaced with 250 uL PBS-T/2% milk powder containing a pre-titrated amount of the primary antibody (ab1128), for 90 min. The plates were washed 3×5 min with PBS-T, before addition of rabbit anti-goat horse radish peroxidase (AP106P) in 250 μL PBS-T/2% milk powder, and incubated for 1 hr. […]
Plates were scanned and analysed using the Immunospot S6 Macro analyzer, which is equipped with BioSpot analysis software for counting immunostained plaques. […]

Structure (SMILES) | IC90 (RSV A2 VR-1540; typical protocol, read-out: RSV Plaque Reduction Assay Strain A2 IC90) [nM] | IC50 (RSV A2 VR-1540; †: typical protocol, n = 1, read-out: RSV Plaque Reduction Assay Strain A2 IC50) [nM] | IC50 [1] [nM] | IC50 (RSV A2, 0709161v) [nM]
CS(=O)(=O)N1CCN(CCCn2c(CN3C(=O)C(F)(F)c4ccccc43)nc3cc(Cl)ccc32)CC1 [Compound 2, 1-({5-Chloro-1-[3-(4-methanesulfonylpiperazin-1-yl)propyl]-1H-1,3-benzodiazol-2-yl}methyl)-3,3-difluoro-2,3-dihydro-1H-indol-2-one] | 35 | 5 | 16 | –
CS(=O)(=O)N1CCC(n2c(CN3C(=O)C(F)(F)c4ccccc43)nc3cc(Cl)ccc32)CC1 [Compound 8, 1-{[5-Chloro-1-(1-methanesulfonylpiperidin-4-yl)-1H-1,3-benzodiazol-2-yl]methyl}-3,3-difluoro-2,3-dihydro-1H-indol-2-one] | – | – | 1.7 | 3.5
